Square brackets hold non-standard residues; d marks the D form. Peptide text beside a SMILES is read from it. Oic = O=C(O)[C@@H]1C[C@@H]2CCCC[C@@H]2N1; d2Nal = N[C@H](Cc1ccc2ccccc2c1)C(=O)O; αMeF = C[C@](N)(Cc1ccccc1)C(=O)O; Orn = NCCC[C@H](N)C(=O)O
Legend:
[1] = target: T1, BKB1 receptor (Oryctolagus cuniculus, UniProt P48748); assay: Isolated rabbit aorta (rbA) organ bath, antagonist potency pA2; type: cell-based; conditions: rabbit aorta without endothelium; mean ± SEM of 4–7 experiments; read-out: Antagonist potencies (pA2) BKB1-R rbA (converted)
T1 construct: The rabbit aorta without endothelium (which contains only the BKB1 receptor); from tissue; host or cells: isolated rabbit aorta (rbA) without endothelium
T1 sequence (P48748 1-352): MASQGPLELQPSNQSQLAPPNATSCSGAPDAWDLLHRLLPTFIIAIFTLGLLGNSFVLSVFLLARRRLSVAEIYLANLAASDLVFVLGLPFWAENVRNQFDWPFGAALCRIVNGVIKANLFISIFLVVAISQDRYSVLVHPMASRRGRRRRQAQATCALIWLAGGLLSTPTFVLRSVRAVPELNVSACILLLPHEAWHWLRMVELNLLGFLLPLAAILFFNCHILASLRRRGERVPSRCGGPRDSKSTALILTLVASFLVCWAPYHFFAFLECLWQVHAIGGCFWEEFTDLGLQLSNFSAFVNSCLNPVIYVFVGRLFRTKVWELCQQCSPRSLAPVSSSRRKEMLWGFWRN
Procedure: (§1) Selected antagonists were tested for activities in three isolated organs: (1) the rabbit aorta (rbA), (2) the human umbilical vein (hUV) and (3) the rabbit jugular vein (rbJV).
(§2) All details regarding the procurements of human umbilical cords and rabbit vessels as well as, the procedures for preparing the isolated organs and the experimental protocols are described in these respective publications: rbA (Rioux et al. 1973, Can J Physiol Pharmacol 51, 114–121); hUV (Gobeil et al. 1996, Br J Pharmacol 118, 289–294), and rbJV (Gaudreau et al. 1981, Can J Physiol Pharmacol 59, 371–379).
The rabbit aorta without endothelium (which contains only the BKB1 receptor) was used to determine the antagonistic activities of each compound.
(§3) The rabbit jugular vein (a pure BKB2 receptor system) was used to exclude any action of the new compounds on the BKB2 receptor and thus establish their selectivity. All tissues were treated with captopril (1 μM) to prevent the degradation of the peptidic agonists.
(§4) Repeated applications of a single and double concentration of BK (on rbJV,) or of desArg^9BK (rbA and hUV) were made in the absence and in presence of the various peptides to evaluate their apparent affinities as antagonists, in terms of pA2 (-log10 of the molar concentration of antagonist that reduces the effect of a double concentration of agonist to that of a single one) (Schild 1947, Br J Pharmacol 2, 189–206).

[2] = target: T2, BKB2 receptor (Oryctolagus cuniculus, UniProt Q28642); assay: Isolated rabbit jugular vein (rbJV) organ bath, antagonist potency pA2; type: cell-based; conditions: BK as agonist, read-out: Antagonist potencies (pA2) BKB2-R rbJV (converted)
T2 construct: The rabbit jugular vein (a pure BKB2 receptor system); from tissue; host or cells: isolated rabbit jugular vein (rbJV)
T2 sequence (Q28642 1-367): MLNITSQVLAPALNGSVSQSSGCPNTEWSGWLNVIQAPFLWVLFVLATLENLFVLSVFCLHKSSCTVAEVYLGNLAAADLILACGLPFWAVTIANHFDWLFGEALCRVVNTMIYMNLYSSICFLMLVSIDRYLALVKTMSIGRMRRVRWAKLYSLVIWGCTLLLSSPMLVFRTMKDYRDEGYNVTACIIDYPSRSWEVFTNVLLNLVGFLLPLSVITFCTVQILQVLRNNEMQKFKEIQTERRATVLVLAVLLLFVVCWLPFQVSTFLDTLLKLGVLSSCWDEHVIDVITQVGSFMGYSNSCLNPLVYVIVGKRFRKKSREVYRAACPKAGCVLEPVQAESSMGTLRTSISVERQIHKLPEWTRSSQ
Procedure: as §1, §2, §3, §4

[3] = target: T3, aminopeptidase P (AmP) (Homo sapiens, UniProt Q9NQW7); assay: In vitro metabolic stability against human platelets AmP; type: in vitro ADME; conditions: mean ± SEM of 3 experiments
T3 construct: from tissue; host or cells: human platelets, freeze-thawed and sonicated, 43 000 x g supernatant
Procedure: These assays were performed using three enzyme preparations: purified angiotensin converting enzyme (ACE; from rabbit lung), human plasma as a, source of aminopeptidase M (AmM) and human platelets as a source of aminopeptidase P (AmP).
Human platelet AmP was prepared as described by Maggiora et al. (1999, J Med Chem 42, 2394–2402). Human platelets (40 ml) were centrifuged at 250×g for 7 min at room temperature. The resulting supernatant was recentrifuged at 2790×g for 15 min at room temperature. Pellets were collected, resuspended in 40 ml of phosphate-buffered saline (PBS) containing 3.5% of sodium citrate, and then re-centrifuged at 2790×g for 15 min at room temperature. This washing step was repeated. Pellets were resuspended in 4 ml of PBS-sodium citrate, snap-frozen in liquid nitrogen, thawed at 37° C., sonicated briefly, and then centrifuged at 43 000×g for 2 h at 4° C. (Sorvall RC 5B, ss-34 rotor). The resulting supernatant was used for enzyme assays as described in Neugebauer et al. (Neugebauer et al. 2002, supra).

[4] = target: T4, BKB1 receptor (Homo sapiens, UniProt P46663); assay: Isolated human umbilical vein (hUV) organ bath, antagonist potency pA2; type: cell-based; set-up: the hUV that contains BKB1 and BKB2 receptors; from tissue; host or cells: isolated human umbilical vein (hUV); conditions: human umbilical vein treated with HOE 140; mean ± SEM of 4–7 experiments; read-out: Antagonist potencies (pA2) BKB1-R hUV (converted)
T4 sequence (P46663 1-353): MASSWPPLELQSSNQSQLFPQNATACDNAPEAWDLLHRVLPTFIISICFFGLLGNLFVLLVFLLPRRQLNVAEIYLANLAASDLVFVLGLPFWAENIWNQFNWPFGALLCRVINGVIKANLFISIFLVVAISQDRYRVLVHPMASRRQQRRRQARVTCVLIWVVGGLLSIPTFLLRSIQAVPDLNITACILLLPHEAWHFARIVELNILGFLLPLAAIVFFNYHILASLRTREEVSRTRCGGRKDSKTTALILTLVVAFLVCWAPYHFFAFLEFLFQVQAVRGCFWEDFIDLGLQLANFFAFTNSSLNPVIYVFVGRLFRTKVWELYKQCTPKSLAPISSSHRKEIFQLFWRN
Procedure: as §1, §2, §3, §4

T3 sequence (Q9NQW7 whole entry): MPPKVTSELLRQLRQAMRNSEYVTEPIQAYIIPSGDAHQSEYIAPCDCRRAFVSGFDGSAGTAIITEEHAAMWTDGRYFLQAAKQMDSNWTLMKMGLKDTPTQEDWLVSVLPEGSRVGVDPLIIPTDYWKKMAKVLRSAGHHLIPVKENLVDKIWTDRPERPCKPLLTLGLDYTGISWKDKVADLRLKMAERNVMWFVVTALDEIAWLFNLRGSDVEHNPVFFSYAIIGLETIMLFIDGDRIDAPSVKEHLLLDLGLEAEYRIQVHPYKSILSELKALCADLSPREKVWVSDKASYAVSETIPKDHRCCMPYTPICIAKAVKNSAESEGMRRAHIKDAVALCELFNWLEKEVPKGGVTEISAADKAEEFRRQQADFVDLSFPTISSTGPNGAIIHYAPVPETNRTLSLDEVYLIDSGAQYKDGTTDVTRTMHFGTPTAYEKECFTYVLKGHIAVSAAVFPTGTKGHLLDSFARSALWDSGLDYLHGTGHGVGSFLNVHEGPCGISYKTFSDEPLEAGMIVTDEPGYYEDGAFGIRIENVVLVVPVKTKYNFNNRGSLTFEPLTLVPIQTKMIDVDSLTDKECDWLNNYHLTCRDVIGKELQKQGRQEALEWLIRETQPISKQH

SMILES | Kb [1] [nM] | Kb [2] [nM] | Peptide metabolism (%) Human platelets AmP [3] [%] | Kb [4] [nM]
CC[C@H](C)[C@H](NC(=O)[C@@H](Cc1ccc2ccccc2c1)NC(=O)[C@H](CO)NC(=O)[C@](C)(Cc1ccccc1)NC(=O)CNC(=O)[C@@H]1CCCN1C(=O)[C@@H]1C[C@@H]2CCCC[C@@H]2N1C(=O)[C@H](CCCNC(=N)N)NC(=O)[C@H](CCCCN)NC(C)=O)C(=O)O [Ac-Lys[Oic^2,(α-Me)Phe^5,D-βNal^7,Ile^8]desArg^9BK] (Ac-KR[Oic]PG[αMeF]S[d2Nal]I-OH) | 3.16 | > 1000 | 12 ± 4 | 3.72
CC[C@H](C)[C@H](NC(=O)[C@@H](Cc1ccc2ccccc2c1)NC(=O)[C@H](CO)NC(=O)[C@](C)(Cc1ccccc1)NC(=O)CNC(=O)[C@@H]1CCCN1C(=O)[C@@H]1C[C@@H]2CCCC[C@@H]2N1C(=O)[C@H](CCCNC(=N)N)NC(=O)[C@H](CCCN)NC(C)=O)C(=O)O [compound c, Ac-Orn[Oic^2,(α-Me)Phe^5,D-βNal^7,Ile^8]desArg^9BK] (Ac-[Orn]R[Oic]PG[αMeF]S[d2Nal]I-OH) | 2.29 | > 1000 | 12 ± 2 | 3.47
